PMC6008465 (British Journal of Cancer, 2018)

System: patients with advanced BRAF-mutated or wild-type (WT) melanoma
Assay: Phase 1 Part B (expansion): safety, MTD confirmation
Assay type: in vivo, human
Method: In Part B, an adaptive study design was planned to define an optimal dosing schedule. Two schedules were evaluated: Schedule I (once-weekly dosing at the MTD, 320 mg/m^2, on Days 1, 8, and 15 of a 28-day cycle) and Schedule II (twice-weekly dosing, on Days 1, 4, 8, 11, 15, and 18 of a 28-day cycle, starting at 160 mg/m^2, based on the Schedule I MTD). One dose escalation (from 160 mg/m^2 to 320 mg/m^2) was allowed in Schedule II for MTD determination. […] Toxicity was managed as before. Up to 30 patients with BRAF-mutated melanoma and up to 29 patients with BRAF-WT melanoma were to be enrolled in Schedule I. Up to 30 patients were to be enrolled into Schedule II once the MTD was confirmed. Based on the efficacy observed in Part A, Schedule II was initiated only in patients with BRAF-mutated melanoma. Patients could continue to receive E6201 as long as there was evidence of clinical benefit (extension phase).
Safety was assessed by monitoring AEs, serious AEs (SAEs), laboratory parameters, vital signs, 12-lead electrocardiograms (ECGs), Eastern Cooperative Oncology Group performance status, and symptom-directed physical and neurologic examination findings. AEs were graded by investigators based on the National Cancer Institute Common Terminology Criteria for Adverse Events, version 3.[16]

[1] = Part B, BRAF-WT 320 mg/m^2 once weekly (n=7)
[2] = Part B, BRAF-mutated 160 mg/m^2 twice weekly (n=3)
[3] = Part B, BRAF-mutated 320 mg/m^2 once weekly (n=20)
[4] = Part B, BRAF-mutated 320 mg/m^2 once-weekly group

CCNc1cc(O)c2c(c1)/C=C/C[C@H](O)[C@H](O)C(=O)/C=C\[C@@H](C)[C@H](C)OC2=O [E6201, (3S,4R,5Z,8S,9S,11E)-14-(ethylamino)-8,9,16-trihydroxy-3,4-dimethyl-3,4,9,19-tetrahydro-1H-2-benzoxacyclotetradecine-1,7 (8H)-dione]
Patients who discontinued treatment due to SAEs (Part B): 4 patients | Fatigue TEAE, patients (Part B overall, 11 patients): 36.7% | Grade 3/4 abdominal pain, patients (Part B, 2 patients): 6.7% | Grade 3/4 dyspnea, patients (Part B, 2 patients): 6.7% | Treatment-emergent SAEs other than death, patients (Part B, 14 patients): 46.7% | Grade 3/4 TEAEs, patients (Part B, 15 patients): 50.0% | Patients with ≥1 TEAE assessed as treatment-related (Part B, 19 patients): 63.3% | QT prolongation reported as an AE (grade 3, possibly related, not DLT), patients (Part B, 60-min infusion, 1 patient): 3.3% | Anemia TEAE incidence, All grades [1]: 3 (42.9) n (%) | Anemia TEAE incidence, G≥3 [1]: 1 (14.3) n (%) | Constipation TEAE incidence, All grades [1]: 2 (28.6) n (%) | Constipation TEAE incidence, G≥3 [1]: 0 n (%) | Cough TEAE incidence, All grades [1]: 1 (14.3) n (%) | Cough TEAE incidence, G≥3 [1]: 0 n (%) | Decreased appetite TEAE incidence, All grades [1]: 2 (28.6) n (%) | Decreased appetite TEAE incidence, G≥3 [1]: 0 n (%) | Fatigue TEAE incidence, All grades [1]: 4 (57.1) n (%) | Fatigue TEAE incidence, G≥3 [1]: 0 n (%) | Muscular weakness TEAE incidence, All grades [1]: 2 (28.6) n (%) | Muscular weakness TEAE incidence, G≥3 [1]: 0 n (%) | Nausea TEAE incidence, All grades [1]: 2 (28.6) n (%) | Nausea TEAE incidence, G≥3 [1]: 0 n (%) | Pain in extremity TEAE incidence, All grades [1]: 2 (28.6) n (%) | Pain in extremity TEAE incidence, G≥3 [1]: 1 (14.3) n (%) | Peripheral edema TEAE incidence, All grades [1]: 2 (28.6) n (%) | Peripheral edema TEAE incidence, G≥3 [1]: 1 (14.3) n (%) | Pyrexia TEAE incidence, All grades [1]: 1 (14.3) n (%) | Pyrexia TEAE incidence, G≥3 [1]: 0 n (%) | Vomiting TEAE incidence, All grades [1]: 1 (14.3) n (%) | Vomiting TEAE incidence, G≥3 [1]: 0 n (%) | Deaths (multisystem organ failure, not considered related) (Part B, BRAF-mutated 160 mg/m^2 once-weekly group (so in the source)): One | Anemia TEAE incidence, All grades [2]: 1 (33.3) n (%) | Anemia TEAE incidence, G≥3 [2]: 0 n (%) | Constipation TEAE incidence, All grades [2]: 0 n (%) | Constipation TEAE incidence, G≥3 [2]: 0 n (%) | Cough TEAE incidence, All grades [2]: 1 (33.3) n (%) | Cough TEAE incidence, G≥3 [2]: 0 n (%) | Decreased appetite TEAE incidence, All grades [2]: 0 n (%) | Decreased appetite TEAE incidence, G≥3 [2]: 0 n (%) | Fatigue TEAE incidence, All grades [2]: 0 n (%) | Fatigue TEAE incidence, G≥3 [2]: 0 n (%) | Muscular weakness TEAE incidence, All grades [2]: 1 (33.3) n (%) | Muscular weakness TEAE incidence, G≥3 [2]: 0 n (%) | Nausea TEAE incidence, All grades [2]: 1 (33.3) n (%) | Nausea TEAE incidence, G≥3 [2]: 1 (33.3) n (%) | Pain in extremity TEAE incidence, All grades [2]: 1 (33.3) n (%) | Pain in extremity TEAE incidence, G≥3 [2]: 0 n (%) | Peripheral edema TEAE incidence, All grades [2]: 1 (33.3) n (%) | Peripheral edema TEAE incidence, G≥3 [2]: 0 n (%) | Pyrexia TEAE incidence, All grades [2]: 0 n (%) | Pyrexia TEAE incidence, G≥3 [2]: 0 n (%) | Vomiting TEAE incidence, All grades [2]: 1 (33.3) n (%) | Vomiting TEAE incidence, G≥3 [2]: 1 (33.3) n (%) | Anemia TEAE incidence, All grades [3]: 1 (5.0) n (%) | Anemia TEAE incidence, G≥3 [3]: 0 n (%) | Constipation TEAE incidence, All grades [3]: 3 (15.0) n (%) | Constipation TEAE incidence, G≥3 [3]: 0 n (%) | Cough TEAE incidence, All grades [3]: 3 (15.0) n (%) | Cough TEAE incidence, G≥3 [3]: 0 n (%) | Decreased appetite TEAE incidence, All grades [3]: 3 (15.0) n (%) | Decreased appetite TEAE incidence, G≥3 [3]: 0 n (%) | Fatigue TEAE incidence, All grades [3]: 7 (35.0) n (%) | Fatigue TEAE incidence, G≥3 [3]: 0 n (%) | Muscular weakness TEAE incidence, All grades [3]: 2 (10.0) n (%) | Muscular weakness TEAE incidence, G≥3 [3]: 0 n (%) | Nausea TEAE incidence, All grades [3]: 7 (35.0) n (%) | Nausea TEAE incidence, G≥3 [3]: 0 n (%) | Pain in extremity TEAE incidence, All grades [3]: 2 (10.0) n (%) | Pain in extremity TEAE incidence, G≥3 [3]: 0 n (%) | Peripheral edema TEAE incidence, All grades [3]: 2 (10.0) n (%) | Peripheral edema TEAE incidence, G≥3 [3]: 0 n (%) | Pyrexia TEAE incidence, All grades [3]: 4 (20.0) n (%) | Pyrexia TEAE incidence, G≥3 [3]: 0 n (%) | Vomiting TEAE incidence, All grades [3]: 5 (25.0) n (%) | Vomiting TEAE incidence, G≥3 [3]: 0 n (%) | Patients with grade 1 photophobia (possibly related) (Part B, BRAF-mutated 320 mg/m^2 once-weekly): one | Deaths (not considered related to E6201) [4]: 2 patients | Patients with grade 4 pericardial effusion (unrelated) [4]: 1 patient | Anemia TEAE incidence, All grades (Part B, Total (N=30)): 5 (16.7) n (%) | Anemia TEAE incidence, G≥3 (Part B, Total (N=30)): 1 (3.3) n (%) | Constipation TEAE incidence, All grades (Part B, Total (N=30)): 5 (16.7) n (%) | Constipation TEAE incidence, G≥3 (Part B, Total (N=30)): 0 n (%) | Cough TEAE incidence, All grades (Part B, Total (N=30)): 5 (16.7) n (%) | Cough TEAE incidence, G≥3 (Part B, Total (N=30)): 0 n (%) | Decreased appetite TEAE incidence, All grades (Part B, Total (N=30)): 5 (16.7) n (%) | Decreased appetite TEAE incidence, G≥3 (Part B, Total (N=30)): 0 n (%) | Fatigue TEAE incidence, All grades (Part B, Total (N=30)): 11 (36.7) n (%) | Fatigue TEAE incidence, G≥3 (Part B, Total (N=30)): 0 n (%) | Muscular weakness TEAE incidence, All grades (Part B, Total (N=30)): 5 (16.7) n (%) | Muscular weakness TEAE incidence, G≥3 (Part B, Total (N=30)): 0 n (%) | Nausea TEAE incidence, All grades (Part B, Total (N=30)): 10 (33.3) n (%) | Nausea TEAE incidence, G≥3 (Part B, Total (N=30)): 1 (3.3) n (%) | Pain in extremity TEAE incidence, All grades (Part B, Total (N=30)): 5 (16.7) n (%) | Pain in extremity TEAE incidence, G≥3 (Part B, Total (N=30)): 1 (3.3) n (%) | Peripheral edema TEAE incidence, All grades (Part B, Total (N=30)): 5 (16.7) n (%) | Peripheral edema TEAE incidence, G≥3 (Part B, Total (N=30)): 1 (3.3) n (%) | Pyrexia TEAE incidence, All grades (Part B, Total (N=30)): 5 (16.7) n (%) | Pyrexia TEAE incidence, G≥3 (Part B, Total (N=30)): 0 n (%) | Vomiting TEAE incidence, All grades (Part B, Total (N=30)): 7 (23.3) n (%) | Vomiting TEAE incidence, G≥3 (Part B, Total (N=30)): 1 (3.3) n (%) | QTcF prolongation to 450–500 ms, patients (Part B, four patients across dose groups): 13.3% | QTcF increase from baseline 30–60 ms, patients (Part B, seven patients): 23.3% | QTcF increase from baseline ≥60 ms, patients (Part B, two patients, BRAF-mutated 320 mg/m^2 once-weekly group): 6.7% | Maximum-tolerated dose (MTD), confirmed (Part B, 60-min infusion once-weekly for 3 weeks of a 28-day cycle): 320 mg/m^2
